In US5707989A, “Pyrimido[5,4-D]pyrimidines, medicaments comprising these compounds, their use and processes for their preparation” (Dr. Karl Thomae GmbH, priority 1994, dated 1998):

How the values were obtained:
Assay type in all cases: cell-based
F/L-HERc cells = test: Inhibition of IL-3-dependent proliferation of F/L-HERc cells; details: Mus musculus, murine IL-3, 48 hours
Excerpt: (§1) The inhibition of EGF-R-mediated signal transmission can be detected, for example, with cells which express human EGF-R, the survival and proliferation of which depend on stimulation by EGF or TGF-alpha. An interleukin-3 (IL-3)-dependent cell line of murine origin which was changed genetically such that it expresses functional human EGF-R was used here. The proliferation of these cells, called F/L-HERc, can therefore be stimulated either by murine IL-3 or by EGF (see von Ruden, T. et al. in EMBO J. 7, 2749-2756 (1988) and Pierce, J. H. et al. in Science 239, 628-631 (1988)).
(§2) The starting material used for the F/L-HERc cells was the cell line FDC-P1, the preparation of which has been described by Dexter, T. M. et al. in J. Exp. Med. 152, 1036-1047 (1980). Alternatively, however, other growth factor-dependent cells can also be used (see, for example, Pierce, J. H. et al. in Science 239, 628-631 (1988), Shibuya, H. et al. in Cell 70, 57-67 (1992) and Alexander, W. S. et al. in EMBO J. 10, 3683-3691 (1991)). Recombinant retroviruses were used for expression of the human EGF-R cDNA (see Ullrich, A. et al. in Nature 309, 418-425 (1984)), as described in yon Ruden, T. et al., EMBO J. 7, 2749-2756 (1988), with the difference that the retroviral vector LXSN (see Miller, A. D. et al. in BioTechniques 7, 980-990 (1989)) was used for expression of the EGF-R cDNA and the line GP+E86 (see Markowitz, D. et al. in J. Virol. 62, 1120-1124 (1988)) was used as the packing cell.
(§3) The test was carried out as follows:
(§4) F/L HERc cells were cultured at 37° C. and 5% CO2 in RPMI/1640 medium (BioWhittaker), supplemented with 10% foetal bovine serum (FCS, Boehringer Mannheim), 2 mM glutamine (BioWhittaker), standard antibiotics and 20 ng/ml of human EGF (Promega). For investigation of the inhibitory activity of the compounds according to the invention, 1.5×10^4 cells per well were cultured in triplicate in 96-well plates in the above medium (200 μl), proliferation of the cells being stimulated with either EGF (20 ng/ml) or murine IL-3. Culture stocks of the cell line X63/0 mIL-3 were used as the source for IL-3 (see Karasuyama, H. et al. in Eur. J. Immunol. 18, 97-104 (1988)). The compounds according to the invention were dissolved in 100% dimethyl sulphoxide (DMSO) and added to the cultures in various dilutions, the maximum DMSO concentration being 1%. The cultures were incubated at 37° C. for 48 hours.
(§5) To determine the inhibitory activity of the compounds according to the invention, the relative cell count was measured in OD units with Cell Titer 96™ Aqueous Non-Radioactive Cell Proliferation Assay (Promega). The relative cell count was calculated in per cent of the control (F/LHERc cells without inhibitor) and the active compound concentration which inhibits the proliferation of the cells to 50% (IC50) was deduced.

human EGF-R = target: T1, human EGF-R (Homo sapiens, UniProt P00533); test: Inhibition of EGF-dependent proliferation of F/L-HERc cells; details: human EGF 20 ng/ml, 48 hours
T1 construct: expressed in transfected cells; host or cells: F/L-HERc cells: murine IL-3-dependent line FDC-P1 infected with recombinant retrovirus (LXSN vector, GP+E86 packaging line) carrying human EGF-R cDNA
Excerpt: as §1, §2, §3, §4, §5

[1] = test system: human tumour cell line KB; test: EGF/TGF-alpha-stimulated proliferation (thymidine incorporation) of KB cells; details: TGF-alpha 10 ng/ml or EGF 20 ng/ml, 60 hours, then [3H]-thymidine 16-18 hours, read-out: IC50 for inhibition of the EGF/TGF-alpha-stimulated KB cell proliferation
Experimental: KB cells (obtained from ATCC) were passaged in DMEM (BioWhittaker) in the presence of 10% FCS (Boehringer Mannheim), 50 μM beta-mercaptoethanol and standard antibiotics. As an indicator of EGF/TGF-alpha-stimulated cell proliferation, the EGF-inducedDNA synthesis was determined by measurement of the incorporation of radioactively labelled thymidine. For this, the celels were washed twice and 1500 cells per well were plated out in a 96-well plate in 200 μl IMDM (BioWhittaker) without serum in the presence of 50 μM beta-mercaptoethanol, standard antibiotics, TGF-alpha [10 ng/ml] or EGF [20 ng/ml] and various concentrations of the substances according to the invention (triplicates, maximum DMSO concentration 1%, see proliferation test with F/L-HERc cells). After 60 hours, [^3 H]-thymidine (0.1 μCi in 10 μl) was added for about 16-18 hours. Subsequent measurement of the thymidine incorporation gave IC50 values of 0.1-1 μM for inhibition of the EGF/TGF-alpha-stimulated KB cell proliferation for compounds 2, 6, 17, 18, 19, 72, 83, 93, 95, 96 and 104 of Example 1.

T1 sequence (P00533 25-1210): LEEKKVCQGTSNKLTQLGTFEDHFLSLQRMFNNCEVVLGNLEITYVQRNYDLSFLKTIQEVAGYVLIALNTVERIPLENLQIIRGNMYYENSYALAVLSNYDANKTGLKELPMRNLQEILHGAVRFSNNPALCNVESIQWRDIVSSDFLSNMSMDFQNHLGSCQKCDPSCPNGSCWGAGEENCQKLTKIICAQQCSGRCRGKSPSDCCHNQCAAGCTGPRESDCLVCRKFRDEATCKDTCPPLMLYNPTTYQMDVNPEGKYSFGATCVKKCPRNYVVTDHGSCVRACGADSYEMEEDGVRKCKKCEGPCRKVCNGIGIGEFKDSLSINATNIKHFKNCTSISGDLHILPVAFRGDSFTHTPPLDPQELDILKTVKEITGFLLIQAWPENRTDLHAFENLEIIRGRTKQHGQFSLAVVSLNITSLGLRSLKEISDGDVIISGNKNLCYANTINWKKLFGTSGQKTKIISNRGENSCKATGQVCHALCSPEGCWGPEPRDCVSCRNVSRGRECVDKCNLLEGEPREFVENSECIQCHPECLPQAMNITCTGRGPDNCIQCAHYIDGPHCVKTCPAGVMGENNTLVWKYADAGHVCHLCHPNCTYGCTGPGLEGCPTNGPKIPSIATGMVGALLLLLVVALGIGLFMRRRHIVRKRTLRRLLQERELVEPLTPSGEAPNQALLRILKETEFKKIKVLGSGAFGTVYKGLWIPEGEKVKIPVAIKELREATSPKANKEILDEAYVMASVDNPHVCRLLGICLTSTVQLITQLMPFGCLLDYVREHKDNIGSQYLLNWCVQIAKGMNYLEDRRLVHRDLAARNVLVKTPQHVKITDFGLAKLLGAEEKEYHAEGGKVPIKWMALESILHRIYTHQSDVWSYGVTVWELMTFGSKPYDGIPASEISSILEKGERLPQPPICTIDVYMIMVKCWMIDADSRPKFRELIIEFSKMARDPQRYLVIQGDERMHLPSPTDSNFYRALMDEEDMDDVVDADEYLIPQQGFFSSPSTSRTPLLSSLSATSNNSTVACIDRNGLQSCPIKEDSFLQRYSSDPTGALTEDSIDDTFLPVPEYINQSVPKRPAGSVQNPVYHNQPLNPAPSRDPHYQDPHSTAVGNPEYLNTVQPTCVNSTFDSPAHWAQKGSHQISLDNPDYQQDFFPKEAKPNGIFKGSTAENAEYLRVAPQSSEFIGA

| Structure (SMILES) | IC50 (F/L-HERc cells) | IC50 (human EGF-R) | IC50 [1] |
| --- | --- | --- | --- |
| Cc1cccc(Nc2ncnc3cnc(NC(C)(C)C)nc23)c1 [1(6), 4-[(3-Methylphenyl)amino]-6-(tert-butylamino)-pyrimido[5,4-d]pyrimidine] | > 10 µM | 0.005 µM | 0.1 to 1 µM |
| Cc1cccc(Nc2ncnc3cnc(NC4CC4)nc23)c1 [1(17), 4-[(3-Methylphenyl)amino]-6-(cyclopropylamino)-pyrimido[5,4-d]pyrimidine] | > 3 µM | 0.04 µM | 0.1 to 1 µM |
| Cc1cccc(Nc2ncnc3cnc(N4CCOCC4)nc23)c1 [1(19), 4-[(3-Methylphenyl)amino]-6-(morpholino)-pyrimido[5,4-d]pyrimidine] | > 10 µM | 0.05 µM | 0.1 to 1 µM |
| Cc1cccc(Nc2ncnc3cnc(N[C@H]4CC[C@H](O)CC4)nc23)c1 [1(72), 4-[(3-Methylphenyl)amino]-6-[(trans-4-hydroxycyclohexyl)amino]-pyrimido[5,4-d]pyrimidine] | > 3 µM | 0.003 µM | 0.1 to 1 µM |
| Clc1cccc(Nc2ncnc3cnc(NC4CC4)nc23)c1 [Example 1(83), 4-[(3-Chlorophenyl)amino]-6-(cyclopropylamino)-pyrimido[5,4-d]pyrimidine] | – | – | 0.1 to 1 µM |
| Clc1cccc(Nc2ncnc3cnc(N4CCCC4)nc23)c1 [Example 1(93), 4-[(3-Chlorophenyl)amino]-6-(1-pyrrolidinyl)-pyrim-ido[5,4-d]pyrimidine] | – | – | 0.1 to 1 µM |
| CC(C)Nc1ncc2ncnc(Nc3cccc(Br)c3)c2n1 [Example 1(95), 4-[(3-Bromophenyl)amino]-6-(isopropylamino)-pyrimido[5,4-d]pyrimidine] | – | – | 0.1 to 1 µM |
| CC(C)Nc1ncc2ncnc(Nc3cccc(Cl)c3)c2n1 [Example 1(96), 4-[(3-Chlorophenyl)amino]-6-(isopropylamino)-pyrim-ido[5,4-d]pyrimidine] | – | – | 0.1 to 1 µM |
| O[C@H]1CC[C@H](Nc2ncc3ncnc(Nc4cccc(Br)c4)c3n2)CC1 [Example 1(104), 4-[(3-Bromophenyl)amino]-6-[(trans-4-hydroxycyclohexyl)-amino]pyrimido[5,4-d]pyrimidine] | – | – | 0.1 to 1 µM |
